# Values quoted from earlier work in US20040120916A1, “Contact lens care compositions, methods of use and preparation which protect ocular tissue membrane integrity” (ADVANCED MEDICAL OPTICS, INC., priority 2002, published 2004).
# How the values were obtained:
# [1] = system: human corneal epithelial cells; conditions: 450 mOsm/kg hypertonic medium; 1 mM taurine (0.0125 w/v %)
# [2] = system: rat large-intestinal tissue; conditions: decrease caused by sodium laurate
# [3] = system: rat large-intestinal tissue
# [4] = system: lipopolysaccharide (LPS)-intoxicated rats; conditions: LPS rat stomachs irrigated with acid solution
structure (smiles),measurement,setting,value
NCCS(=O)(=O)O [taurine],cell survival,[1],significantly increased cell survival
same,"transepithelial electrical resistance, a measure of cell membrane integrity",[2],significantly suppressed the decrease
same,release of histamine enhanced by sodium laurate,[3],suppress the release of histamine
same,ulcerogenic parameters including mucosal histamine concentrations,[4],dose-dependent attenuations
